Source: publication PMC6409644, “The Inhibitory Effect of Celangulin V on the ATP Hydrolytic Activity of the Complex of V-ATPase Subunits A and B in the Midgut of Mythimna separata” (Toxins, 2019)

Tests used:
[1] = target: T1, V-ATPase subunit A (TSCA mutant) in complex with subunit B (Mythimna separata, UniProt A0A0U1XFD8+A0AAD8DTT7, A0AAD8DTT7:C254A/A0AAD8DTT7:T257S); assay: inhibition of ATP hydrolysis (inorganic phosphate release) by the purified complex; IC50 […], Ki calculated; CV was a suspension; type: biochemical
T1 construct: gene PYW07_012492; with V-ATPase subunit B
T1 sequence (A0AAD8DTT7 1-617, stated change not applied): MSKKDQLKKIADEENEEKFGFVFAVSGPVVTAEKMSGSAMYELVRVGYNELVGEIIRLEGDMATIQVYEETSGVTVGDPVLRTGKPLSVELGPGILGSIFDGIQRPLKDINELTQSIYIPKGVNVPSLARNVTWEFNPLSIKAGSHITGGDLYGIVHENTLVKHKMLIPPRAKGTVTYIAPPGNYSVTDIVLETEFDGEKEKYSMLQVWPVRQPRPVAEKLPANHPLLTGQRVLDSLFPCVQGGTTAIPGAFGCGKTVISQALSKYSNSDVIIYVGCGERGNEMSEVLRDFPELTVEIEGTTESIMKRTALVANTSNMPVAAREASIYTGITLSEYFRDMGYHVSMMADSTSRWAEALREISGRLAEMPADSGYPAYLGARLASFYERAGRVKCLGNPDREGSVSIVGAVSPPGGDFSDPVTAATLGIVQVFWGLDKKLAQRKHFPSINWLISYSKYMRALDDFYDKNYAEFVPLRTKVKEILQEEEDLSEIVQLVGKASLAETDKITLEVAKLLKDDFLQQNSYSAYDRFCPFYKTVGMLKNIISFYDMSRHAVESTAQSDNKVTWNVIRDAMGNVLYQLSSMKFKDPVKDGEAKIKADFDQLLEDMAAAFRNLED
T1 sequence (A0A0U1XFD8 1-497): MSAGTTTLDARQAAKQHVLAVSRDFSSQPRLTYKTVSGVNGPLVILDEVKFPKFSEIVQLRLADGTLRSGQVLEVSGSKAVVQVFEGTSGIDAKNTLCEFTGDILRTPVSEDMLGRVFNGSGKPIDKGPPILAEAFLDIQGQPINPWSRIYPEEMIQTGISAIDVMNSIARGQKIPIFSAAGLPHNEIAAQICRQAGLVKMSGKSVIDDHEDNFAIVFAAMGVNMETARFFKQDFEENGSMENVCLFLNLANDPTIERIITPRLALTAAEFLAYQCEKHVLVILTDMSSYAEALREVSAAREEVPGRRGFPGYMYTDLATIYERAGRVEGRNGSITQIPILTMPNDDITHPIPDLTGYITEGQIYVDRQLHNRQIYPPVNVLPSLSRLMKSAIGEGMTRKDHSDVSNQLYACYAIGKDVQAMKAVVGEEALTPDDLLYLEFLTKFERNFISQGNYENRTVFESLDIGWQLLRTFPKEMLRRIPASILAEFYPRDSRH

[2] = test system: T2, Nc1ncnc2c1ncn2[C@@H]1O[C@H](COP(=O)(O)OP(=O)(O)OP(=O)(O)O)[C@@H](O)[C@H]1O; assay: ATP hydrolysis kinetics (inorganic phosphate release), Lineweaver–Burk Km; type: biochemical, Mythimna separata; conditions: Mg2+ ([…] MgCl2) ATP binding site of the AB complex (by docking: D416, D436, K437, K438 of subunit A and T439 of subunit B)
T2 construct: with V-ATPase subunit B

## CC(=O)O[C@H]1C[C@](C)(O)C23OC(C)(C)[C@H]([C@H](OC(=O)C(C)C)[C@@H](OC(=O)c4ccccc4)[C@]2(COC(=O)C(C)C)[C@H]1OC(C)=O)[C@H]3O [CV, Celangulin V]
[1]
  Ki: 10 µM

## V-ATPase subunit A (TSCA mutant) in complex with subunit B (Mythimna separata; A0AAD8DTT7:C254A/A0AAD8DTT7:T257S)
[2]
  Km: 268 µM
